Legend:
NCI-H929 cells = experiment: Western blot of cell lysates; format: cell-based, human
Description: Western blot analysis was used to determine the levels of proteins involved in cell cycle and differentiation. […] After centrifugation at 15,000×g for 15 min at 4° C., the suspension was collected. Protein concentrations were quantitated using the Bio-Rad assay (Bio-Rad Labolatories, Hercules, Calif.). […] The blots were developed using the Supersignal West Pico Chemiluminescent Substrate Kit (Pierce, Rockford, Ill.). In FIG. 3C, NCI-H929 cells were treated with either paricalcitol (10^−7M) or 1,25(OH)2D3 (10^−7M) and cell lysates were prepared after 72 hrs. Cell lysates were used for Western blot analysis and probed sequentially with antibodies to p27KIP1, Bcl-2 and Bax. Control cells were treated with vehicle alone. Amount of protein was normalized by comparison to the amount of GAPDH. […] The Bcl-2 and Bax antibodies were obtained from Santa Cruz Biotechnology Inc., Santa Cruz, Calif.

SW837 cells = experiment: Western blot of cell lysates; format: cell-based, human; details: 10^−7M, 72 hrs
Description: Western blot analysis was used to determine the levels of proteins involved in cell cycle and differentiation. […] After centrifugation at 15,000×g for 15 min at 4° C., the suspension was collected. Protein concentrations were quantitated using the Bio-Rad assay (Bio-Rad Labolatories, Hercules, Calif.). […] The blots were developed using the Supersignal West Pico Chemiluminescent Substrate Kit (Pierce, Rockford, Ill.). In FIG. 4C, HT-29 and SW837 cells were cultured with either paricalcitol (10^−7M) or 1,25(OH)2D3 (10^−7M) for 72 hrs. Cell lysates were prepared and analyzed by Western blot which was probed sequentially with antibodies to COX-1 and COX-2 (Santa Cruz Biotechnology). Control cells were treated with vehicle alone. The amount of protein was normalized by comparison to the quantity of GAPDH.

24-hydroxylase mRNA [1] = experiment: RT-PCR of 24-hydroxylase mRNA, spleen mononuclear cells of wild type mice; format: cell-based; details: 10^−8 M
Description: In FIG. 6B, HT-29 colon cancer cells were treated with paricalcitol (10^−7M) for 0, 6, 12 or 24 hrs and RNA was harvested. Expression of 24 hydroxylase mRNA was analysed by RT-PCR. The amounts of mRNA were normalized by comparison to 18S RNA. In FIG. 6C, mononuclear cells extracted from spleens of either wild type or VDR knock-out mice were treated with paricalcitol (10^−8M) for either 12 or 24 hrs, and RNA was harvested. Expression of 24 hydroxylase mRNA was analysed by RT-PCR. The amounts of mRNA were normalized by comparison to 18S RNA. For the PCR analysis, RNA extraction and reverse transcription were done by TRIzole (Invitrogen, Carlsbad, Calif.) and reverse transcriptase (Promega, Madison, Wis.). A twenty-microliter volume of cDNA was prepared from 1 μg of RNA. cDNAs were amplified by PCR with specific primers for 24-hydroxylase and 18S. The cycle number was 25 for 18S and 32 for 24-hydroxylase. […] The VDR KO Mouse and Colony-Forming Assay was performed as follows. VDR KO mice were generated and genotypes were determined by Southern Blot Analysis as described previously (O'Kelly et al., supra, 2002). For experiments using VDR KO mice, their wild-type (WT) littermates were used as controls. Mice were killed by cervical neck dislocation. […] Colonies were counted after 2 weeks. […]

NCI-H929 myeloma cells = details: 4 days exposure
24-hydroxylase mRNA [2] = experiment: RT-PCR of 24-hydroxylase mRNA in NB-4 cells; format: cell-based, human; details: paricalcitol 0.1 μM, arsenic trioxide 0.6 μM, after 24 hrs
Description: HL-60 and NB-4 myeloid leukemia cell lines were treated with paricalcitol (0.01 μM for HL-60, 0.1 μM for NB-4) and/or arsenic trioxide (0.8 μM for HL-60, 0.6 μM for NB-4). Control cells were treated with vehicle alone. […] Cell lysates were also made and used for Western blot which was probed with antibodies to C/EBPβ. (B) Cell lysate of HL-60 cells were made after 3 days and used for Western blot which was probed sequentially with antibodies to Bcl-2, BclXL and Bax (C) Cell lysates of HL-60 cells were made after 1, 2 or 3 days and used for Western blot which was probed sequentially with antibodies to phosphorylated ERK. (D) After pretreatment either with or without […] of PD98059 for 1 hour, HL-60 cells were treated with paricalcitol (0.01 μM) and/or arsenic trioxide (0.8 μM) for 2 days. Control cells were treated with vehicle alone. CD14 expression was measured by flow cytometry.
In FIG. 6B, HT-29 colon cancer cells were treated with paricalcitol (10^−7M) for 0, 6, 12 or 24 hrs and RNA was harvested. Expression of 24 hydroxylase mRNA was analysed by RT-PCR. The amounts of mRNA were normalized by comparison to 18S RNA. In FIG. 6C, mononuclear cells extracted from spleens of either wild type or VDR knock-out mice were treated with paricalcitol (10^−8M) for either 12 or 24 hrs, and RNA was harvested. Expression of 24 hydroxylase mRNA was analysed by RT-PCR. […]

ARH-77 myeloma cells = experiment: MTT assay; format: cell-based, human

For `C[C@H](/C=C/[C@H](C)C(C)(C)O)[C@H]1CC[C@H]2/C(=C/C=C3C[C@@H](O)C[C@H](O)C3)CCC[C@]12C` [paricalcitol, 19-nor-1,25, (OH)2D3], the “expression of Bcl-2 and p27^KIP1” value (NCI-H929 cells; 0.01 μM each, 3 days) was “down-regulated”, the “decrease of Bcl-2 protein level” value (NCI-H929 cells; 10^−7M, 72 hrs) was “about 40%” and the “effect on levels of Bax” value (NCI-H929 cells; 10^−7M, 72 hrs) was “did not affect”. The “effect on levels of p21WAF1” value (NCI-H929 cells; 10^−7M, 96 hrs) was “little effect”, the “increase of p27KIP1 expression” value (NCI-H929 cells; 10^−7M, 96 hrs) was “about 3 fold” and the “decrease of COX-2 expression” value (SW837 cells) was 40%. For the same molecule, the “effect on COX-1 expression” value (SW837 cells) was “without affecting”, the “time within which 24-hydroxylase mRNA expression was induced” value (24-hydroxylase mRNA [1]) was no more than 12 h and the “antiproliferative effect by MTT assay” value (NCI-H929 myeloma cells) was “sensitive”. The “mRNA levels of 24-hydroxylase” value (24-hydroxylase mRNA [2]) was “increased” and the antiproliferative effect (ARH-77 myeloma cells) was “somewhat less than the effect on NCI-H929 cells”.

Reference: patent US20050054620A1, “Paricalcitol as a chemotherapeutic agent” (priority 2003, published 2005)
